Values of other authors in patent US6569457B2, “Enteric coated pharmaceutical tablet and method of manufacturing” (priority 1998, dated 2003).

degradation at acidic pH: degrades rapidly
SMILES: O=c1[nH]cnc2c1ncn2C1CCC(CO)O1 (stereo not shown) [ddl, 2′,3′-dideoxyinosine]
